# Counter-ions that a name gives are not always drawn.
# Legend:
# [1] = test system: human prostate cancer LNCaP cells; experiment: Antiproliferative effect in LNCaP cells (CellTiter-Glo, 6 days); type: cell-based; conditions: 144 h
# Method: In this experiment, the inhibitory effect of the test compound on cell proliferation in human prostate cancer LNCaP cells was detected.
# The tumor cell lines were cultured in a 37° C., 5% CO2 incubator under the above culture conditions. Regular passage, and cells in logarithmic growth phase were taken for plating.
# 2. Cell Plating • (1) Cells were stained with trypan blue and viable cells were counted; • (2) the cell concentration was adjusted to an appropriate concentration;
# • (3) 90 μL of cell suspension per well was added to the culture plate as shown in the table above, and cell-free culture medium was added to the blank control well; • (4) the culture plate was cultured overnight in a 37° C., 5% CO2 incubator with 100% relative humidity.
# Preparation of stock solution storage plate with 400 times the initial concentration of the compound: The compound was serially diluted with DMSO from the highest concentration to the lowest concentration. The solution was prepared as needed each time.
# Preparation of Working Solution with 10 Times the Initial Concentration of Compounds and Cell Treatment with Compounds • (1) To a V-bottom 96-well plate was added 78 μL of cell culture medium, and 2 μL of compound was pipetted from a stock solution storage plate with 400 times the initial concentration of the compound and added to the cell culture medium of the 96-well plate. To vehicle control and blank control was added 2 μL of DMSO. After the compound or DMSO was added, blowing with a pipette and mixing well were carried out. • (2) Administration: 10 μL of a working solution with 10 times the initial concentration of the compound was added to the cell culture plate. To vehicle control and blank control was added 10 μL of DMSO-cell culture medium mixture. • (3) The 96-well plate was returned to the incubator and cultured for 6 days.
# The following steps were performed according to the instructions of Promega CellTiter-Glo luminescent cell viability assay kit (Promega-G7573). • (1) CellTiter-Glo buffer was melted and brought to room temperature; • (2) CellTiter-Glo substrate was brought to room temperature; • (3) CellTiter-Glo working solution was prepared by adding 100 mL of CellTiter-Glo buffer to a vial of CellTiter-Glo substrate to dissolve the substrate; • (4) the mixture was slowly vortexed and shaken to be fully dissolved; • (5) the cell culture plate was taken out and left for 30 minutes to equilibrate to room temperature; • (6) 50 μL of CellTiter-Glo working solution was added per well (equal to half the volume of cell culture medium per well). The cell plate was wrapped in aluminum foil to be protected from light; • (7) the culture plate was shaken on an orbital shaker for 2 minutes to induce cell lysis; (8) the culture plate was left at room temperature for 10 minutes to stabilize the luminescent signal; • (9) the luminescent signal was detected on a 2104 EnVision plate reader.
# The inhibition rate (IR) of the test compound was calculated using the following formula: IR (%)=(RLU vehicle control−RLU compound)/(RLU vehicle control−RLU blank control)×100%. The inhibition rates of compounds at different concentrations were calculated in Excel, and then GraphPad Prism software was used to plot inhibition curves and calculate relevant parameters, including minimum inhibition rate, maximum inhibition rate, and ICSO.
# [2] = test system: human prostate cancer LNCaP xenograft tumor; experiment: In vivo pharmacodynamic study, LNCaP subcutaneous xenograft tumor CB-17 SCID model; parameters: species or system CB-17 SCID mice; conditions: WX002 30 mg/kg (D0-D3), 50 mg/kg (D4-D21) p.o. BID
# Method: Human prostate cancer LNCaP cells (ECACC-89110211) were cultured in vitro in a monolayer under the culture conditions of RPMI-1640 medium with 10% fetal bovine serum, […], and 100 μg/mL streptomycin, and cultured in a 37° C., 5% CO2 incubator.
# Routine digestion with trypsin-EDTA was performed twice a week for passaging. When the cell saturation density was 80% to 90% and the number of cells reached the required level, the cells were collected, counted, and inoculated.
# CB-17 SCID mice, 6 to 8 weeks old, male, weighing 18 to 22 g.
# 0.2 mL (1×10^7) of LNCaP cells (with matrix gel, volume ratio of 1:1) were subcutaneously inoculated on the right back of each mouse. The mice were subjected to surgical castration when the average tumor volume reached approximately 80 mm^3, and grouping and administration were initiated when the average tumor volume reached 166 mm^3.
# Tumor diameters were measured twice a week with a vernier caliper. The formula for calculating tumor volume was: V=0.5a×b^2, wherein a and b represented the long and short diameters of the tumor, respectively.
# The antitumor efficacy of compounds was evaluated by TGI (%). TGI (%) reflected the tumor growth inhibition rate. TGI (0%)=[(1−(average tumor volume at the end of administration in a treatment group−average tumor volume at the beginning of administration in this treatment group))/(average tumor volume at the end of treatment in the vehicle control group−average tumor volume at the beginning of treatment in the vehicle control group)]×100%.
SMILES,IC50 [1] [nM],"Tumor volume (Day 0) ([2]; Day 0, start of administration) [mm^3]",TGI (Day 21) ([2]; Day 21) [%],Tumor volume (Day 21) ([2]; Day 21) [mm^3]
CC1(C)C(=O)N(c2ccc(C#N)c(C(F)(F)F)c2)C(=S)N1c1ccc(OCCN2CCN(CC(=O)Nc3ccc4c(C5CCC(=O)NC5=O)coc4c3)CC2)c(F)c1 (centres unmarked) [WX002],46,166 ± 18,89.1,219 ± 39
N#Cc1ccc(O[C@H]2CC[C@H](NC(=O)c3ccc(N4CCC(CN5CCN(c6cccc7c6ccc6occ(C8CCC(=O)NC8=O)c67)CC5)CC4)nn3)CC2)cc1Cl (some centres unmarked) [Hydrochloride of WX015],45,,,
